Results taken from publication PMC8583776, “PD-L1 Inhibitors: Different Classes, Activities, and Mechanisms of Action” (International Journal of Molecular Sciences, 2021).
Read-outs that look alike come from different tables or passages of the source.

Experiments:
[1] = molecular target: T1, PD-1/PD-L1 immune checkpoint (Homo sapiens, UniProt Q9NZQ7); details: cited from earlier work; for ICB Assay %RLUmax: % of activation by therapeutic anti-PD-L1 antibody; for EC50: read-out: ICB Assay EC50
T1 construct: host or cells: CHO-K1 (CHO/TCRAct/PD-L1) cells and Jurkat Effector Cells
T1 sequence (Q9NZQ7 19-290): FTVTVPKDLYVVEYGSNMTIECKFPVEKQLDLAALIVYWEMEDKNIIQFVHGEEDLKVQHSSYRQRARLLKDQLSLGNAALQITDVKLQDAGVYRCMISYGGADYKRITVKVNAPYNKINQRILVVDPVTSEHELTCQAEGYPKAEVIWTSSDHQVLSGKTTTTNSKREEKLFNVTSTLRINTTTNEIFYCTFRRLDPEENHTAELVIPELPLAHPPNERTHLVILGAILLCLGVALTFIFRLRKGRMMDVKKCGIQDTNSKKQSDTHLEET

hPD-1/hPD-L1 complex [2] = molecular target: T2, hPD-1/hPD-L1 complex (Homo sapiens, UniProt Q9NZQ7); details: cited from earlier work
T2 construct: Tag1 or Tag2 (kit tag, identity not disclosed); purchased CisBio (Codolet, France)
T2 sequence (Q9NZQ7 19-238 limits assumed, one chain of several): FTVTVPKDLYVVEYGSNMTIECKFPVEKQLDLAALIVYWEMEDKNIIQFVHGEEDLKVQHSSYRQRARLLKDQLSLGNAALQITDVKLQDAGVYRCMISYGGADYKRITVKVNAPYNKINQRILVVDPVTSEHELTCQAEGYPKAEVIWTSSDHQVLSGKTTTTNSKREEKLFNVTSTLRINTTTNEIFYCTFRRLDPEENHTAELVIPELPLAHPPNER

mPD-L1 = tested on: mPD-L1; design: method as in PMID 33437940; details: cited from earlier work; for Target Specificity mPD-L1: mouse PD-L1
MC38-hPD-L1 tumor model = tested on: MC38-hPD-L1 tumor model; design: method as in PMID 33619272; details: humanized double knock-in mice for PD-1 and PD-L1; cited from earlier work
PD-L1 = tested on: PD-L1; design: method as in PMID 33619272; details: cited from earlier work
human PD-L1 [3] = tested on: human PD-L1; design: method as in PMID 29069777, PMID 28613862, PMID 27083005, PMID 33619272; details: in vitro PD-L1 dimerization in the presence of the molecule; cited from earlier work
hPD-1/hPD-L1 complex [4] = molecular target: T2, hPD-1/hPD-L1 complex; assay: HTRF assay of PD-1/PD-L1 complex formation blockade; assay type: binding; details: Figure A2, 5 nM hPD-L1, 50 nM hPD-1
Description: We performed a comparison of the in vitro targeting of the PD-1/PD-L1 immune checkpoint with molecules selected from various classes, including small molecules, macrocyclic peptides, and monoclonal antibodies. For this, two standardized and popular techniques used in the available literature were applied: the protein-based Homogeneous Time-Resolved Fluorescence (HTRF) method and the cell-based Immune Checkpoint Blockade (ICB) assay. Using these methods, three parameters describing the in vitro potency of the tested compounds were determined: (i) IC50 values of the blockade of PD-1/PD-L1 complex formation (from HTRF); (ii) EC50 values of the reactivation of the effector T cells blocked with PD-L1 (from ICB); and (iii) maximal activation levels of the effector T cells, calculated as the % of the activation in the presence of therapeutic anti-PD-L1 antibody atezolizumab or durvalumab. […]
The certified CisBio (Codolet, France) HTRF assay was used to determine the IC50 values of the compounds according to the manufacturer’s guidelines. […] IC50 of tested compounds was determined for two individual dilution series unless stated otherwise. After mixing, the plate was left for 2 h incubation at room temperature and later measured using Tecan Spark 20M multimode microplate reader (Tecan, Männedorf, Switzerland). […]

hPD-L1 = tested on: hPD-L1; design: method as in PMID 33437940; details: cited from earlier work
human PD-L1 [5] = details: cited from earlier work
PD-1 = details: cited from earlier work
PD-1/PD-L1 complex = details: various assays; cited from earlier work
human PBMCs = tested on: human PBMCs; design: method as in PMID 31374878; details: cited from earlier work
mouse T cells = tested on: mouse T cells; design: method as in PMID 31374878; details: cited from earlier work
[6] = other laboratories, read-out: HTRF IC50 Other
[7] = authors' laboratory, read-out: HTRF IC50 Ours

Row | Compound | ICB Assay %RLUmax [1] [%] | EC50 [1] [nM] | IC50 (hPD-1/hPD-L1 complex [2]; [6]) [nM] | Target Specificity mPD-L1 (mPD-L1) | further results
1 | COc1cc(-c2cccc(-c3cccc(-c4ccc(CN5CC(C(=O)O)C5)c(OC)c4)c3C)c2C)ccc1CN1CC(C(=O)O)C1 [C13] | 100 | 104 | 4.23 | – | –
2 | O=C(O)[C@@H]1CCCCN1Cc1ccc(OCc2cccc(-c3ccccc3)c2Br)c(Br)c1 [2k] | 87 | 6630 | – | No | IC50 (hPD-1/hPD-L1 complex [2]; [7]): 14.9 nM
3 | COc1nc(OCc2cccc(-c3ccccc3)c2C)ccc1CNCCNC(C)=O [BMS-202] | – | – | – | No | –
4 | nivolumab: therapeutic antibody | 100 | 1.27 | 0.2 | – | –
5 | Cc1c(NC(=O)c2ccc(CNCCO)cn2)cccc1-c1cccc(NC(=O)c2ccc(CNCCO)cn2)c1C [comp. A] | 86.3 | 18.9 | 0.4 | No | in vivo bioactivity (MC38-hPD-L1 tumor model): succeeded in showing the bioactivity; dimerization of PD-L1 in a cellular context (PD-L1): dimerization of PD-L1
6 | durvalumab: therapeutic anti-PD-L1 antibody | 100 | 0.23 | – | No | blockade of mouse PD-L1 (mPD-L1): not the mouse PD-L1; PD-L1 Dimerization (human PD-L1 [3]): No; IC50 (hPD-1/hPD-L1 complex [4]; read-out: HTRF IC50): 0.0966 nM; IC50 (hPD-1/hPD-L1 complex [4]; [7]): 0.1 nM; blockade of human PD-L1 (hPD-L1): blocks the human PD-L1
7 | O=C(O)[C@H](CO)NCc1cc(Br)c(OCc2cccc(-c3ccccc3)c2Br)cc1OCc1ccc2nonc2c1 [L7] | 75 | 375 | – | – | –
8 | CC(=O)NCCNCc1cc(C)c(OCc2cccc(-c3cccc(COc4cc(OCc5cccc(C#N)c5)c(CNCCNC(C)=O)cc4C)c3C)c2C)cc1OCc1cccc(C#N)c1 [2b] | 93 | 763 | – | No | –
9 | COc1cc(-c2cccc(-c3ccc4c(c3)OCCO4)c2Cl)ccc1CNC(CO)(CO)CO [8j] | 87 | 1030 | – | No | IC50 (hPD-1/hPD-L1 complex [2]; [7]): < 1 nM
10 | Cc1c(COc2cc(OCc3cccc(C#N)c3)c(CN3C[C@H](O)C[C@@H]3C(=O)O)cc2Cl)cccc1-c1ccc2c(c1)OCCO2 [BMS-1166] | – | – | – | No | –
11 | p101: macrocyclic peptide PD-L1 inhibitor disclosed by Bristol Myers Squibb (FFIVIRDRVFRCG) | – | 7500 | 120 | – | IC50 (hPD-1/hPD-L1 complex [2]; [7]): 27.8 nM
12 | p71: macrocyclic peptide PD-L1 inhibitor disclosed by Bristol Myers Squibb | – | 293 | 7 | – | –
13 | atezolizumab: therapeutic anti-PD-L1 antibody | 100 | 0.14 | – | – | blockade of mouse PD-L1 (mPD-L1): blocks both human and mouse PD-L1; PD-L1 Dimerization (human PD-L1 [3]): No; blockade of human PD-L1 (hPD-L1): blocks both human and mouse PD-L1
14 | p57: macrocyclic peptide PD-L1 inhibitor disclosed by Bristol Myers Squibb | – | 566 | 9 | – | –
15 | CC(=O)NCCNCc1cc(C)c(OCc2cccc(-c3cccc4c3CCN4CCCN3CCC(O)CC3)c2C)cc1OCc1cccc(C#N)c1 [A20] | 55 | 430 | 17 | – | –
16 | C[C@@H](O)[C@H](NC(=O)N[C@@H](CC(N)=O)c1nc([C@@H](N)CO)no1)C(=O)O [CA-170] | – | – | – | – | direct binding to human PD-L1 (human PD-L1 [5]): direct binder of neither human PD-L1 nor PD-1; direct binding to PD-1 (PD-1): direct binder of neither human PD-L1 nor PD-1; activity in PD-1/PD-L1-focused cell-based ICB assay [1]: inactive; dissociation of the PD-1/PD-L1 complex (PD-1/PD-L1 complex): unable to dissociate the PD-1/PD-L1 complex; activation of human PBMCs (human PBMCs): increase the activation of human PBMCs; activation of mouse T cells (mouse T cells): increase the activation of human PBMCs and mouse T cells
17 | O=C(O)[C@H](CO)NCc1ccc2c(Nc3cccc(-c4ccc5c(c4)OCCO5)c3Cl)nsc2c1 [CH20] | 93 | 5600 | 8.5 | – | –
